Here are results for four molecules from PMC4399250, “Characterization of HIV-1 entry inhibitors with broad activity against R5 and X4 viral strains” (Journal of Translational Medicine, 2015).

Data set [1] concerns HIV-1 BaL (R5). As to the kind of experiment: HIV-1 acute infection of PHA-activated PBMC, p24 ELISA, BaL strain. It is filed as cell-based. The conditions noted are these: for effect on R5 HIV-1 replication (in words): p24 day 7, concentrations tested up to 30 μM for the six compounds. (In general: ELISA stands for enzyme-linked immunosorbent assay.)
Data set [2] relates to HIV-1 IIIB (X4). Kind of data set: HIV-1 acute infection of PHA-activated PBMC, p24 ELISA, IIIB strain. It is filed as cell-based. The conditions noted are these: for effect on X4 HIV-1 replication (in words): p24 day 7, concentrations tested up to 30 μM for the six compounds.
The test system of data set [3] is HIV-1 IIIB (X4). The format is cell-based.
In the next data set the target is CXCR4 (Homo sapiens, UniProt P61073). As to the kind of experiment: Flow cytometry competition with anti CXCR4 moAbs. It is filed as binding. The conditions noted are these: PM1 cells; ND-4043 30, 10, 3 μM; AMD3100 3, 0.3, 0.03 μM. Background: A flow cytometer gives signals particle by particle.
Chain of CXCR4 (P61073 whole entry): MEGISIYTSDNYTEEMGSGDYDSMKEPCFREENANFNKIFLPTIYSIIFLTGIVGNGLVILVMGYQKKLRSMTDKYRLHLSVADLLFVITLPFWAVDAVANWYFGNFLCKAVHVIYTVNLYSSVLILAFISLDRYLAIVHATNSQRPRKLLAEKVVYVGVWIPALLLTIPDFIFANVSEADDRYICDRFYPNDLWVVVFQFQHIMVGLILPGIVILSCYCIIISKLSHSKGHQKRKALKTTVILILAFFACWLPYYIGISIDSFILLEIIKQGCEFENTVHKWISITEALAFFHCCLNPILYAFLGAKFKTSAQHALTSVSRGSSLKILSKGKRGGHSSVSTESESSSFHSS
A further data set has as its system influenza A virus. As to the kind of experiment: Influenza virus-like particle entry assay in MDCK cells. The format is cell-based. The conditions noted are these: three concentrations, bafilomycin 100 nM.
For data set [4], the system named is HIV-1 BaL (R5). As to the kind of experiment: HIV-1 fusion assay, PM1-BaL donor and TZM-bl target cells. It is filed as cell-based. The conditions noted are these: PM1-BaL donor, TZM-bl target, 2.5% FCS.
The subject of the next data set is PBMC. Kind of data set: MTT cytotoxicity assay on PBMC. The conditions noted are these: infected PBMC. The format is cell-based, human. The protocol: PBMC and TZM-bl viability was measured by the MTT [3-(4,5- dimethylthiazol-2-yl)-2,5-diphenyl tetrazolium bromide; Sigma] assay. Cells were seeded in 96-well plates in three replicates and were incubated for four (TZM-bl) or six (PBMC) days with different concentrations of the compounds or DMSO alone at 0.2% as control. Then 10μl of complete medium containing MTT (0.5 mg/ml) was added to each well. After 24h incubation at 37°C, the supernatant was removed and 200μl of ethanol was added to each well to solubilize the formazan crystals. After vigorous shaking, absorbance was measured in a microplate reader at 490 nm.
On the technique in general: Formazan colour is commonly taken as a measure of viable cells.

Setting [5] is: BaL (R5), infected PBMC, p24 day 7.
Where [6] appears, read: IIIB (X4), infected PBMC, p24 day 7.

Like-named read-outs stand apart in the source and are kept apart here.

For `c1cc(CN2CCCNCCNCCCNCC2)ccc1CN1CCCNCCNCCCNCC1` [AMD3100], the “effect on R5 HIV-1 replication (in words)” value in the data set on HIV-1 BaL (R5) [1] (PBMC) is “no effect”. Moreover, the “concentration inhibiting X4 HIV-1 replication” value in the data set with HIV-1 IIIB (X4) [2] (PBMC, p24 day 7, ten fold dilutions, complete inhibition for AMD3100) was found to be 0.01 µM. Moreover, the “activity relative to ND-4043 on X4 inhibition” value in the data set on HIV-1 IIIB (X4) [2] (side-by-side comparison) is listed as “approximately 100 fold”. In addition, in the data set on HIV-1 IIIB (X4) [3], the “effect on X4-mediated fusion (in words)” value was “selectively blocked entry”. Further, the “effect on binding of four anti-CXCR4 moAbs” value on CXCR4 was “inhibited binding of the four moAbs in a concentration-dependent manner”.

In the case of `CO/C1=C\C(C)=C\[C@@H](C)[C@@H](O)[C@@H](C)C/C(C)=C/C=C/[C@H](OC)[C@@H]([C@@H](C)[C@@H](O)[C@H](C)[C@@]2(O)C[C@@H](O)[C@H](C)[C@@H](C(C)C)O2)OC1=O` [bafilomycin A1], in the data set with influenza A virus, the “effect on influenza A virus entry” value is given as “inhibited viral entry significantly”.

By CC50 is commonly meant the concentration at which the toxic effect on the cells reaches its halfway point. A higher CC50 goes with better tolerance by the cells. As usually defined, the IC50 is the concentration needed to halve the response being measured. Lower therefore signals higher potency. The term IC75 denotes the concentration needed for an effect of 75%. A higher IC75 goes with a need for much substance. The term IC90 denotes the concentration needed for an effect of 90%. A high value points to a need for much substance. Regarding `Cn1cc(NC(=O)c2cc(NC(=O)c3cc(NC=O)cn3C)cn2C)cc1C(=O)NCCC(=N)N` [compound 4044, distamycin], the “effect on R5-mediated fusion (in words)” value in the data set on HIV-1 BaL (R5) [4] is on record as “did not affect”. Half-maximal cytotoxicity in the data set on PBMC (table section BaL (R5)) (CC50) was put at 25 µM. In the data set on PBMC (table section IIIB (X4)), this molecule gave a CC50 of 30 µM. Also, in the data set with HIV-1 BaL (R5) [1] (setting [5]), the IC50 was more than 30 µM, the 75% effect concentration (IC75) is more than 30 µM and the IC90 was more than 30 µM. Besides, the “effect on R5 HIV-1 replication (in words)” value in the data set with HIV-1 BaL (R5) [1] (PBMC) was “not effective”. In the data set with HIV-1 IIIB (X4) [2] (setting [6]), this molecule gave an IC50 of more than 30 µM, an IC75 of more than 30 µM and an IC90 of more than 30 µM. The “effect on X4 HIV-1 replication (in words)” value in the data set with HIV-1 IIIB (X4) [2] (PBMC) is “not effective”. Also, the “effect on X4-mediated fusion (in words)” value in the data set with HIV-1 IIIB (X4) [3] (SupT1-IIIB donor, TZM-bl target, 2.5% FCS) was “did not affect”.

On to Maraviroc, for which, in the data set with HIV-1 BaL (R5) [4], the “effect on R5-mediated fusion (in words)” value is “selectively blocked entry”. The “concentration inhibiting R5 HIV-1 replication” value with HIV-1 BaL (R5) [1] (PBMC, p24 day 7, ten fold dilutions, complete blockade for maraviroc) was 0.1 µM. Further, in the data set with HIV-1 BaL (R5) [1] (side-by-side comparison), the “activity relative to ND-4043 on R5 inhibition” value was “approximately 100 fold”. The “effect on X4 HIV-1 replication (in words)” value in the data set with HIV-1 IIIB (X4) [2] (PBMC) was “no effect”.
